Solubility in water data for one substance are collected here from US6461664B1, “Chelated feed additive and method of preparation” (Agristudio S. r. L., priority 1999, dated 2002).

The nature of this data set: solubility in water of the dried chelate. It counts as physicochemical. The following applies: ambient temperature, white powder. How it is done:
In the case described, the dried chelate is in the form of a white powder, with a melting point of about 248° C. and a solubility in water of about 20 g/l at ambient temperature.

In the case of (CH3SCH2CH2CHOHCO)2Zn [Example 1], the solubility in water entry is “about 20 g/l”.
